Test results: patent US20240197755A1, “Pharmaceutical composition for use in the therapeutic treatment of cancer and complications of cancer” (priority 2016, published 2024)

Key:
[1] = system: MCF-7 (breast cancer); assay: Antiproliferative effect on MCF-7 cell line, 72 h exposure; format: cell-based, human; details: MCF-7, 72 hours of exposure
Source text: (§1) Different human Hep3B (hepatocellular carcinoma), MCF-7 (breast cancer), DU-145 (prostate cancer) cell lines were studied. They were selected on the basis of their ability to overexpress at least one protein from among reptin, pontin, and survivin. The stromal cells were also studied in order to determine the impact of the composition according to the invention in the tumor microenvironment. These cells were maintained in DMEM and supplemented with 10% fetal bovine serum (FBS) and 1% antibiotic-antimycotic solution (MSP) containing penicillin, streptomycin, and amphotericin B under standard growth conditions (5% CO2, 37° C., humidified atmosphere). The compositions above were dissolved and diluted in DMSO.
(§2) The cells above were treated with increasing solutions for 72 h in complete cell media. All treatment and control protocols were prepared as described previously.

[2] = system: HCCLM3 cells; details: cited from earlier work
[3] = rats, oral, 50 mg/kg, 18 consecutive days; cited from earlier work
[4] = system: DU-145 (prostate cancer); assay: Antiproliferative effect on DU-145 cell line, 72 h exposure; format: cell-based, human; details: DU-145, 72 hours of exposure
Source text: as §1, §2

[5] = system: Hep3B (hepatocellular carcinoma); assay: Antiproliferative effect on Hep3B cell line, 72 h exposure; format: cell-based, human; details: 72 hours of exposure
Source text: as §1, §2

[6] = system: U251/AMD cells; details: cited from earlier work

Row | Compound | antiproliferative effect [1] | expression of the BDNF protein ([2]; HCCLM3 cells) | cell proliferation of HCCLM3 cells ([2]; as a function of concentration and time) | mortality and systemic toxicity [3] | antiproliferative effect [4] | antiproliferative effect [5] | IC50 of U251/AMD cells ([6]; AMD, with beta-elemene) [µg/mL] | intracellular accumulation of AMD ([6]; U251/AMD cells)
1 | C=C(C)[C@@H]1CC[C@]2(C)CC[C@]3(C)[C@H](CC[C@@H]4[C@@]5(C)CC[C@H](O)C(C)(C)[C@@H]5CC[C@]43C)[C@@H]12 [lupeol] | more pronounced antiproliferative effect | marked decrease | inhibits cell proliferation | neither mortality nor systemic toxicity | more pronounced antiproliferative effect | more pronounced antiproliferative effect |  | 
2 | O=CC=Cc1ccccc1O [2-hydroxycinnamaldehyde] | more pronounced antiproliferative effect |  |  |  | more pronounced antiproliferative effect | more pronounced antiproliferative effect |  | 
3 | C=C[C@]1(C)CC[C@@H](C(=C)C)C[C@H]1C(=C)C [Composition 13-elemene, beta-elemene] |  |  |  |  |  |  | 0.051 | increases the intracellular accumulation of AMD
